# According to ChEMBL document CHEMBL1139085, “Synthesis and biological evaluation of fenobam analogs as mGlu5 receptor antagonists” (Bioorg Med Chem Lett, 2007):
# Calls of active or inactive are those of the source. The calls are words filed in the database; no cut-off is given here.
# Legend:
# [1] = Metabolic stability in human liver microsomes; assay type: ADME, Microsome
# [2] = target: T1, Metabotropic glutamate receptor 5 (Homo sapiens, UniProt P41594); assay: Antagonist activity at mGluR5 by FLIPR; assay type: functional
# [3] = target: T1, Metabotropic glutamate receptor 5; assay: Displacement of [3H]MPEP from mGlu5 receptor
# [4] = Metabolic stability in rat liver microsomes; assay type: ADME, Microsome
# Rattus norvegicus [5] = species on record: Rattus norvegicus; assay: Anxiolytic-like activity in rat assessed as reversal of foot shock-induced suppression of lever pressing by conflict test; assay type: functional, organism-based
# Rattus norvegicus [6] = assay: Anxiolytic-like activity in rat assessed as increase in drinking time at 30 mg/kg, po by Vogel conflict test; assay type: functional, organism-based; parameters: dose 30 mg/kg
# Rattus norvegicus [7] = species on record: Rattus norvegicus; assay: Anxiolytic-like activity in rat assessed as reversal of foot shock-induced suppression of lever pressing by conditioned emotional response test; assay type: functional, organism-based
# Rattus norvegicus [8] = assay: Anxiolytic-like activity in rat assessed as behavioral disruption at 3 to 30 mg/kg, po by conflict test; assay type: functional, organism-based
# Rattus norvegicus [9] = assay: Anxiolytic-like activity in rat assessed as behavioral disruption at 3 to 30 mg/kg, po by conditioned emotional response test; assay type: functional, organism-based
# T1 sequence (P41594 whole entry): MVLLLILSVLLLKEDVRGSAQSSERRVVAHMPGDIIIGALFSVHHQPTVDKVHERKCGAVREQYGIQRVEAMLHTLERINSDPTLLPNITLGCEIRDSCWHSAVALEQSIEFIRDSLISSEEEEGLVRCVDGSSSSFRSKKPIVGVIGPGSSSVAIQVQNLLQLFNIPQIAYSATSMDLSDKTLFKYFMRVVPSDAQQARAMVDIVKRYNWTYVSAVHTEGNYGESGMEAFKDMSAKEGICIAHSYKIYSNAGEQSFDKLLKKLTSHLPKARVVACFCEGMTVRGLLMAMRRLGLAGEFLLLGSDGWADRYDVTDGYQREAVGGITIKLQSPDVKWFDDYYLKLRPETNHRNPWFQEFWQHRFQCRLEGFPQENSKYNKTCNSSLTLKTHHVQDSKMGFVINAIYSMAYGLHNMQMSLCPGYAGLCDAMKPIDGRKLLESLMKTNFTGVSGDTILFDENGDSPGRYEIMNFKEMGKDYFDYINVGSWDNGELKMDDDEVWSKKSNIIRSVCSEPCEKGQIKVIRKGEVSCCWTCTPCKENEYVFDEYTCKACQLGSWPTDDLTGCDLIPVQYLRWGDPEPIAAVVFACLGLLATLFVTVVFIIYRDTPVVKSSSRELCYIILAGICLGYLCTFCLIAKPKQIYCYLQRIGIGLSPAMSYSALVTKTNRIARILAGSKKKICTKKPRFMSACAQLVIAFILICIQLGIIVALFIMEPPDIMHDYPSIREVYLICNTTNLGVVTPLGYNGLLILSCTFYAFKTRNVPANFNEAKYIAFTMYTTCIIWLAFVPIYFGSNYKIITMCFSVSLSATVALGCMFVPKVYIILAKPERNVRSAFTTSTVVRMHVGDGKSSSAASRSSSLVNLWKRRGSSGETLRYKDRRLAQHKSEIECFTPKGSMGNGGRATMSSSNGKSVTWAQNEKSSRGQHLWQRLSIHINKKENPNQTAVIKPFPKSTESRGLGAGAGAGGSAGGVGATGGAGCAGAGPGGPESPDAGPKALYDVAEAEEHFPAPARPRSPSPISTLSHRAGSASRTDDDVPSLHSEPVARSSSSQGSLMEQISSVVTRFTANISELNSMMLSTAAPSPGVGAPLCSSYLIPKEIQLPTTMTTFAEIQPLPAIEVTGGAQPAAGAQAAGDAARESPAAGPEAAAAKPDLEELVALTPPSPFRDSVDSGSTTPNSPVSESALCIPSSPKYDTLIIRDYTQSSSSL
Compound,microsomal CLint [1],IC50 [2],IC50 [3],microsomal CLint [4],other results
CN1CC(=O)N/C1=N\C(=O)Nc1ccncc1,11 µL/min/mg,> 5000 nM,1120 nM,9 µL/min/mg,
CN1CC(=O)N/C1=N\C(=O)Nc1ccccc1Cl,,6800 nM,2520 nM,,
CN1CC(=O)N=C1NC(=O)Nc1cccc(Cl)c1 [FENOBAM ANHYDROUS],100 µL/min/mg,38 nM,61 nM,44 µL/min/mg,
Cc1cccc(C#Cc2ccccn2)n1,,400 nM,39 nM,,
Cc1cccc(C#Cc2ccncc2)n1,,213 nM,26 nM,,
CN1CC(=O)N/C1=N\C(=O)Nc1ccccc1,,3300 nM,1360 nM,,
CN1CC(=O)N/C1=N\C(=O)Nc1cccnc1,20 µL/min/mg,> 5000 nM,> 5000 nM,5 µL/min/mg,
CN1CC(=O)N/C1=N\C(=O)Nc1ccc(Cl)cc1,,> 5000 nM,> 5000 nM,,
Cc1cccc(C#Cc2cccnc2)n1,,66 nM,10 nM,,
CN1CC(=O)N/C1=N\C(=O)Nc1ccsc1,,4020 nM,700 nM,,
Cc1cccc(C#Cc2cccc(Cl)c2)n1,,7 nM,3 nM,,
Cc1cccc(C#Cc2ccccc2Cl)n1,,15 nM,5 nM,,
Cc1cccc(C#Cc2ccc(Cl)cc2)n1,,1020 nM,286 nM,,
CN1CC(=O)N/C1=N\C(=O)Nc1csc(Cl)c1,55 µL/min/mg,434 nM,78 nM,27 µL/min/mg,Activity (Rattus norvegicus [5]): Dose-dependent effect; Activity (Rattus norvegicus [6]): Active; Activity (Rattus norvegicus [7]): Dose-dependent effect; Activity (Rattus norvegicus [8]): inactive; Activity (Rattus norvegicus [9]): inactive
CN1CC(=O)N/C1=N\C(=O)Nc1ccccn1,47 µL/min/mg,1100 nM,587 nM,22 µL/min/mg,
